In US10555987B2, “GHRH agonists for the treatment of ischemic disorders” (UNIVERSITY OF MIAMI, priority 2012, dated 2020):
Non-standard residues stand in square brackets, D forms with d. Residues, ends and D or L forms follow the SMILES beside them. *: point of attachment. Desaminotyrosyl = O=C(CCc1ccc(O)cc1)*; Agmatine = N=C(N)NCCCCN*; Nle = CCCC[C@H](N)C(=O)O; Orn = NCCC[C@H](N)C(=O)O; Abu = CC[C@H](N)C(=O)O

What was measured:
GH release = assay: In vivo endocrine activity, GH release after subcutaneous administration (Table 9); settings: rat; for GH releasing potency relative to JI-38 (=1): subcutaneous (s.c.) injection
Description: Subcutaneous Administration. Adult male rats were used and anesthetized with pentobarbital (6 mg/100 g, b.w.), by i.p. injection. […] Blood samples were taken from the jugular vein 5, 15 and/or 30 minutes after the injection. The blood samples were centrifuged, plasma was removed and the GH level was measured byELISA. The results are summarized in terms of potency in Table 9.

[1] = tested on: myocardial infarction (Fisher-344 rats); assay: Serial echocardiography after MI, compared to JI-38 (Example 15, Table 15); format: in vivo, rat; design: key to LVEDD: Left Ventricular End Diastolic Diameter / LVESD: Left Ventricular End Systolic Diameter / VD: Ventricular Diastole / VS: Ventricular Systole / EF: Ejection Fraction / FS: Fraction Shortening: ↓: downward arrow denotes lower than JI-38; ↑: upward arrow denotes greater than JI-38; =denotes same as JI-38; ⬇⬇: double arrow denotes greater effect; ⬆⬆: double arrow denotes greater effect; settings: in comparison to JI-38
Description: Echocardiographic measurements were obtained at baseline, 2 days, 1, 2 and 4 weeks. Echocardiographic assessments were performed in anesthetized rats (2% isoflurane inhalation) using a Vevo-770 echocardiogram (Visual Sonics Inc., Toronto, Ontario, Canada) equipped with a 17.5-MHz transducer. Cardiac dimensions: LV end diastolic (LVEDD), end systolic (LVESD) diameters and fractional shortening (FS) were recorded from M-mode images using averaged measurements from 3 to 5 consecutive cardiac cycles according to the American Society of Echocardiography. Ejection fraction (EF) was calculated from bi-dimensional long-axis parasternal views taken through the infarcted area. All images were analyzed using Vevo 770 3.0.0 software (Visual Sonics Inc., Toronto, Ontario, Canada).
(§1) Myocardial infarction (MI) was induced by permanent ligation of the left coronary artery in female 6-month-old Fisher-344 rats. Following experimental myocardial infarction (MI), rats were randomly assigned to receive either placebo, JI-38, or one of the following new analogs of GHRH: MR-30 l(P-21301), MR-303(P-21303), MR-356(P-20356), MR-502(25502), MR-350(P-20350), MR-36 l(P-20361), MR-367(P-20367), MR-403(P-27403), MR-404(P-27404), and MR-409(P-27409) (10 rats per each group). The GHRH peptide agonists were adminsistered starting 2 hours post-surgery, 1 week, 2 week, and 4 week intervals. All treatment was given subcutaneously twice daily. Cardiac performance was assessed by serial echocardiography and hemodynamic analysis derived from pressure-volume loops as described before.
The echocardiographic experiments are shown in FIGS. 10-15 and the results are summarized in Table 15 (results were expressed in comparison to JI-38; downward arrow denotes lower than JI-38; upward arrow denotes greater than JI-38; =denotes same as JI-38; and double arrow denotes greater effect).

[2] = tested on: myocardial infarction (Fisher-344 rats); assay: Hemodynamic analysis (pressure-volume loops), body and heart weight after MI, compared to JI-38 (Example 15, Table 16); format: in vivo, rat; design: key to ESP (End-Systolic Pressure) / EDP (End-Diastolic Pressure) / ESV (End-Systolic Volume) / PRSW (Preload Recruitable Stroke Work) / Ees (End-systolic Elastance) / dP/dt max (peak rate of the pressure rise) / dP/dt max_EDV / dP/dt min / TAU (relaxation time constant calculated by Weiss method) / SV (Stroke Volume) / CO (Cardiac Output) / SW (Stroke Work) / EF / Ea/Ees / Ea (arterial Elastance): ↓: downward arrow denotes lower than JI-38; ↑: upward arrow denotes greater than JI-38; =denotes same as JI-38; ⬇⬇: double arrow denotes greater effect; ⬆⬆: double arrow denotes greater effect; settings: rat MI model, s.c. twice daily; pressure-volume loops; expressed in comparison to JI-38
Description: Rats were anesthetized by intramuscular injection of a mixture of ketamine (100 mg/kg), xylazine (20 mg/kg) and acepromazine (10 mg/kg). A 2-F micromanometer tipped catheter (SPR-838, Millar Instruments, Houston, Tex.) was inserted into the right carotid artery and advanced retrograde into the left ventricle. Measurements were calibrated by injecting a hypertonic saline (15%) bolus to determine extra-ventricular conductance; relative volume units were converted to actual volume using the cuvette calibration method. All analyses were performed using PVAN 3.0 software (Millar Instruments, Houston, Tex.).
as §1
The hemodynamic studies are shown in FIGS. 16-33 and the results are summarized in Table 16 (results were expressed in comparison to JI-38; downward arrow denotes lower than JI-38; upward arrow denotes greater than JI-38; =denotes same as JI-38; and double arrow denotes greater effect).

GHRH receptor [3] = target: T1, GHRH receptor (Homo sapiens, UniProt Q02643); assay: GHRH receptor binding, competition with 125I-labeled JV-1-42, human pituitary membrane homogenates (Table 5); design: Normal human pituitaries were purchased from the National Hormone and Peptide Program; tissue National Hormone and Peptide Program (A.F. Parlow, Harbor-UCLA Medical Center, Torrance, Calif.); host or cells: normal human pituitary, membrane fraction
T1 sequence (Q02643 23-423): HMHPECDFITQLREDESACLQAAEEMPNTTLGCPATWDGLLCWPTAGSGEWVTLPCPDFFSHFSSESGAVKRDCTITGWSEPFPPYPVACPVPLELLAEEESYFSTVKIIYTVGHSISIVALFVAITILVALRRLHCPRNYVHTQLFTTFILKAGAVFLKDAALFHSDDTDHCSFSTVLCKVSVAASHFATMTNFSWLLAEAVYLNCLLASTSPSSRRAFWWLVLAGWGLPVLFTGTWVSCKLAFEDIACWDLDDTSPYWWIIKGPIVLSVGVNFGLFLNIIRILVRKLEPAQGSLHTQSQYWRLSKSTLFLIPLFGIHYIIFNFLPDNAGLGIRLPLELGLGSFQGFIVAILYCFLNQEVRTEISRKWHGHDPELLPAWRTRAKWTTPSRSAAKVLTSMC
Description: Normal human pituitaries were purchased from the National Hormone and Peptide Program (A.F. Parlow, Los Angeles, County Harbor-UCLA Medical Center, Torrance, Calif.). Briefly, in competitive binding analysis, ^125I-labeled JV-1-42 ([…]) was displaced by GHRH agonists at 10^−6 to 10^−12 M.
The final binding affinities were expressed as IC50 values and were calculated by using the LIGAND PC computerized curve-fitting program of Munson and Rodbard as modified by McPherson.

GHRH receptor [4] = target: T1, GHRH receptor; assay: GHRH receptor binding, competition with 125I-labeled JV-1-42, human pituitary membrane homogenates (Table 7); design: Normal human pituitaries were purchased from the National Hormone and Peptide Program; tissue National Hormone and Peptide Program (A.F. Parlow, Harbor-UCLA Medical Center, Torrance, Calif.); host or cells: normal human pituitary, membrane fraction
Source text: Normal human pituitaries were purchased from the National Hormone and Peptide Program (A.F. Parlow, Los Angeles, County Harbor-UCLA Medical Center, Torrance, Calif.).

CCCC[C@H](NC(=O)[C@@H](NC(=O)[C@H](CC(=O)O)NC(=O)[C@H](CCC(N)=O)NC(=O)[C@H](CC(C)C)NC(=O)[C@H](CC(C)C)NC(=O)[C@H](CCCN)NC(=O)[C@H](CCCNC(=N)N)NC(=O)[C@H](C)NC(=O)[C@H](CO)NC(=O)[C@H](CC(C)C)NC(=O)[C@H](CCC(N)=O)NC(=O)[C@H](CC)NC(=O)[C@H](CC(C)C)NC(=O)[C@@H](NC(=O)[C@H](CCCN)NC(=O)[C@H](CCCNC(=N)N)NC(=O)[C@H](Cc1ccc(O)cc1)NC(=O)[C@H](CO)NC(=O)[C@H](CCC(N)=O)NC(=O)[C@@H](NC(=O)[C@H](Cc1ccccc1)NC(=O)[C@@H](NC(=O)[C@H](C)NC(=O)[C@H](CC(=O)O)NC(=O)[C@@H](C)NC(=O)CCc1ccc(O)cc1)[C@@H](C)CC)[C@@H](C)O)C(C)C)[C@@H](C)CC)C(=O)N[C@@H](CC(=O)O)C(=O)NCCCCNC(=N)N [Peptide P-20350, [Dat^1, D-Ala^2, Gln^8, Orn^12, Abu^15, Orn^21, Nle^27, Asp^28, Agm^29]hGHRH(1-29) NH2] (Desaminotyrosyl-[dA]DAIFTQSYR[Orn]VL[Abu]QLSAR[Orn]LLQDI[Nle]D-Agmatine)
Stimulation of growth hormone levels after subcutaneous administration (in words) (GH release; s.c.): stimulated greater growth hormone levels than hGHRH or JI-38
GH releasing potency relative to JI-38 (=1) (GH release; 15 min after): 1.53
GH releasing potency relative to JI-38 (=1) (GH release; 30 min after): 1.17
EF: Ejection Fraction [1]: =
FS: Fraction Shortening [1]: =
LVEDD: Left Ventricular End Diastolic Diameter [1]: ↓
LVESD: Left Ventricular End Systolic Diameter [1]: =
VD: Ventricular Diastole [1]: =
VS: Ventricular Systole [1]: =
CO (Cardiac Output) [2]: ↑
EDP (End-Diastolic Pressure) [2]: ↑
EF [2]: ↑
ESP (End-Systolic Pressure) [2]: ↑
ESV (End-Systolic Volume) [2]: =
Ea (arterial Elastance) [2]: =
Ea/Ees [2]: =
Ees (End-systolic Elastance) [2]: =
PRSW (Preload Recruitable Stroke Work) [2]: =
SV (Stroke Volume) [2]: =
SW (Stroke Work) [2]: ↓
TAU (relaxation time constant calculated by Weiss method) [2]: =
dP/dt max (peak rate of the pressure rise) [2]: =
dP/dt max_EDV [2]: =
dP/dt min [2]: =
IC50 (GHRH receptor [3]; 125I-JV-1-42, human pituitary membranes, Table 5): 40 pM
Relative affinity (Binding potency) vs GHRH (GHRH receptor [3]; GHRH(1-29) = 1, Table 5): 101.5
Relative affinity (Binding potency) vs JI-38 (GHRH receptor [3]; JI-38 = 1, Table 5): 42.7
IC50 (GHRH receptor [4]; 125I-JV-1-42, human pituitary membranes, Table 7): 520 pM
Relative affinity (Binding potency) vs JI-38 (GHRH receptor [4]; JI-38 = 1, Table 7): 8.37
